The record followed here is patent publication US20030065039A1, “Biologically active 1,3-bis-aromatic-prop-2-en-1-ones, 1,3-bis-aromatic-propan-1-ones, and 1,3-bis-aromatic-prop-2-yn-1-ones” (Statens Serum Institute, priority 1997, published 2003).

In one data set the test system is human lymphocytes. In words: Lymphocyte Proliferation Assay. It is filed as cell-based. The following applies: Lymphocyte; PHA provoked proliferation of human lymphocytes; read-out: Lymphocytes IC50 ± SD. The method, then: Human blood mononuclear cells (BMNC) from heparinized blood were isolated by metrizoate sodium-Ficoll density gradient centrifugation, washed 3 times in RPMI 1640 medium supplemented with 5% FCS and with 400 IU of penicillin plus 400 μg/ml streptomycin. BMNC were resuspended in the medium and cultured in triplicate, 0.63×10^5/ml and 160 μl per vial, in round-bottom microtiter plates with 20 μl of various concentrations of the test compound. Immediately prior to incubation, optimum concentrations of the mitogen phytohaemagglutinin (PHA) and the antigen purified protein derivative of tuberculin (PPD) were added to the cultures in a volume of 20 μl. Unstimulated control cultures were always included. Cultures were incubated for 3 or 7 days. The degree of lymphocyte proliferation was estimated by ^3H-thymidine (1 μCi per well) addition 24 h before the cells were harvested on glass fiber filters by means of a harvesting machine), and ^3H-thymidine incorporation was measured in a liquid scintillation counter. For each set of triplicate values, the median was recorded. Unstimulated cultures were always included as controls.

The subject of another data set is Leishmania promastigotes. The data set can be described thus: Leishmania promastigotes Assay. It is filed as cell-based. The following applies: Leishmania; promastigotes, 3H-thymidine uptake; read-out: Leishmania IC50 ± SD. The method, then:
A WHO reference vaccine strain of L. major originally isolated from a patient in Iran and a Kenyan strain of L. donovani (MHOM(/KE/85/NLB 274) were cultured in medium 199 containing 0.02 mg/ml gentamycin, 25 mM Hepes, 4 mM L-glutamine, and 20% heat inactivated fetal calf serum (FCS). Incubation was carried out at 26° C. Promastigotes were harvested on day 3 and 6 of the culture and used for the parasite growth inhibition.
The effect of the test compounds on promastigotes was assessed by a method similar to the one described by Pearson et al., by incubating promastigotes (3×10^6/ml) at 26° C. for 2 hrs in the presence of a given compound or the medium alone in 96 wells flat bottom microtiter plates. Following incubation, 100 μCi of 3H-thymidine was added to each well and further incubated for 18 hrs. Promastigotes were then harvested on filter paper by means of a cell harvester, extensively washed with distilled water and counted in a scintillation counter. The promastigotes were also counted microscopically and their flagellar motility was assessed.

For a further data set, the system named is Helicobacter pylori. The data set can be described thus: Helicobacter species Assay (agar plate, MIC). It is filed as cell-based. The following applies: for MIC: Helicobacter pylori, 20 strains of H. pylori, agar plate, 72 hours, read-out: MIC; for No. strains inhibited/No. strains tested: at the MIC of the same line. As to the method: 20 strains of Helicobacter pylori were used in an agar plate assay. The compounds were incorporated in the agar plates at different concentrations as described in the examples and were then inoculated with different strains of Helicobacter pylori followed by incubation in a microaerophilic atmosphere at 37° C. for 72 hours. The number of colony-forming units (CFU) were counted after the incubation period. The MIC values were determined as the minimal concentration required to inhibit growth of the bacteria.
(§1) Stock solutions were made at a concentration of 1 mg/ml by dissolving 1 mg of each compound in 100 μl DMSO (dimethylsulfoxide) followed by addition of 900 μl of heat-inactivated fetal claf serum (HFCS). These stock solutions were diluted with HFCS to make solutions having the following concentrations: 320 μg/ml, 160 μg/ml, 80 μg/ml, 40 μg/ml and 20 μg/ml. Dilution rows were made with 3 ml aliquots in vials containing the compounds in the following final test concentrations: 16 μg/ml, 8 μg/ml, 4 μg/ml, 2 μg/ml and 1 μg/ml. As control was used DMSO-HFCS containing an amount of DMSO equal to the amount of test compound in the solution with 320 μg/ml compound.
Bacteria: 20 strains of Helicobacter pylori were used in an agar plate assay. The compounds were incorporated in the agar plates at different concentrations and then they were inoculated with different strains of Helicobacter pylori followed by incubation at microaerophilic atmosphere at 37° C. in 72 hours. The number of colony-forming units (CFU) were counted after the incubation period. The MIC values were determined as the minimal concentration required to inhibit growth of the bacteria.
as §1, with “concentrations: 2560 μg/ml, 1280 μg/ml, 640 μg/ml,” for “concentrations:”, “160 µg/ml and” for “160 μg/ml,”, “80” for “80 μg/ml, 40 μg/ml and 20”, “concentrations: 128 μg/ml, 64 μg/ml, 32 μg/ml, 12” for “concentrations: 16”, “8” for “8 μg/ml, 4 μg/ml, 2”, “and 4” for “and 1”
Bacteria: 20 strains of Helicobacter pylori were used in an agar plate assay. The same method as described above under Experiment A was employed and MIC values were determined.

The next data set has as its system Plasmodium falciparum. In words: Plasmodium falciparum Assay. The following applies: Plasmodium falciparum; 3-H-hypoxanthine incorporation, 48 hours; read-out: Plasmodium IC50 ± SD. It is filed as cell-based. The method, then: The experiments in which compounds were tested for their ability to inhibit parasite growth were performed by a modification of the method originally described by Jensen et al. (1982). 50 μl of parasitized erythrocytes (parasitemia approximately 1%) in a concentration of 5×10^8/ml and 50 μl of RPMI medium containing different concentrations of the test compound was added to each well of a 96 well flat-bottomed microtiter plate. The cultures were then incubated for 48 hours, 24 hours before termination of the culture adding 20 μl of 3-H-hypoxanthine (40 uCi/ml) was added to each well. The cultures were then harvested onto glass fiber filters using a Skatron cell harvester, and the incorporation of 3-H-hypoxanthine into the DNA of dividing parasites was determined by liquid scintillation spectrometry. Control cultures with uninfected erythrocytes and infected erythrocytes in RPMI medium without test compounds were always performed in parallel to the test cultures. In some experiments thin smears of parasite cultures were stained by Giemsa and examined under microscope (×1000). The test compounds described above, were diluted in RPMI medium immediately before use. In the experiments, chloroquine phosphate was used as a positive control as a drug known to inhibit parasite growth.

Another data set deals with TNF-α. In words: TNF-α production by human peripheral blood mononuclear cells, culture supernatant (ELISA). It is filed as cell-based. As to the method:
Cells: Peripheral blood mononuclear cells obtained from healthy individuals. The cells were separated by a conventional method lymphoprep) and suspended in RMPI 1640 containing 5% human serum.
Stimulation of cytokine-release from human mononuclear cells: Human peripheral blood mononuclear cells from Danish donors were suspended in 1-10% (v/v) human serum in RPMI 1640 and adjusted to 2×10^6 cells per ml. 0.1 ml volumes were then dispensed into wells of 96-well microtiter plates. […] In some experiments cells were preincubated with drugs for 2 hrs before addition of stimulation antigens. The cultures were incubated overnight for TNF-α and IL-6 assays.
Supernatants were collected and assayed for TNF-α, IL-1α and IL-6 by ELISA procedures (Jakobsen et al., 1993, Fomsgaard et al., 1988, Hansen et al., 1991) with the following modifications. ELISA Maxisorp plates (Nunc, Roskilde, Denmark) were coated for 24 hrs at 4 C with 100 μl per well of 2.5 μg/ml rabbit polyclonal IgG to human recombinant TNF, IL-1α or IL-6 in 100 mM sodiumhydrogencarbonate. Non-attached sites were blocked for 1 h by 200 μl per well of 2% human serum slbumin in PBS (1 h at 37° C.), and the wells were washed 4 times in 2.5% NaCl, 0.1% Tween 20 (Merck, Darmstadt, Germany). This washing procedure was done after each of the following incubating steps:
1) 100 μl culture supernatants made to 50% (v/v) in incubation buffer (4% (v/v) normal rabbit serum, DAKO code X902), 1% polyethylene glycol (MW 6,000), 2.5% NaCl, 0.1% Tween 20 in phosphate buffered saline (PBS) were incubated 2 hrs at 37° C., dilutions of native as well as recombinant cytokine standards in the same incubation buffer were asssayed in parallel with the tested supernatants,
2) 100 μl per well of biotinilated rabbit antibodies to recombinant TNF-α, IL-1α or IL-6 (1.5 μg/ml in 0.5% human serum albumin, 0.1% Tween 20 in PBS) were added at 37° for 2 hrs,
3) […] per well of a 1:1000 dilution of streptavidin-peroxidase (Amersham, UK), at room temperature for 30 min.
Enzyme activities were quantitated after addition of 100 μl per well of 0.67 mg/ml 1,2-phenyldiamine hydrochloride (DAKO) dissolved in 100 mM citric acid-phosphate buffer, pH 5.0 containing 0.015% (v/v) H2O2. The reactions were stopped by adding 50 μl per well of 2.5 M H2SO4, and the optical densities are measured in an ELISA scanner at 490 nm against a test reference at 620 nm.
Assay: The compounds were prepared as stock solution at a concentration of 1 mg/ml in medium containing 10% DMSO. The dilutions were made in medium. The cells were stimulated with either SPAG (a malaria antigen TNF-inducer) or bacterial LPS. The supernatant of cell cultures were assayed for TNF-α using a commercial ELISA kit.
Background: ELISA stands for enzyme-linked immunosorbent assay.

Where [1] appears, read: Experiment 1, LPS, 12.5 μg/ml, Control 1.17.
Setting [2] is: Experiment 1, LPS, 25 μg/ml, Control 1.17.
Setting [3] is: Experiment 1, LPS, 50 μg/ml, Control 1.17.
Setting [4] is: Experiment 1, LPS, 100 μg/ml, Control 1.17.
Where [5] appears, read: Experiment 1, SPAG, 12.5 μg/ml, Control 3.73.
Setting [6] is: Experiment 1, SPAG, 25 μg/ml, Control 3.73.
[7] abbreviates: Experiment 1, SPAG, 50 μg/ml, Control 3.73.
The mark [8] stands for this setting: Experiment 1, SPAG, 100 μg/ml, Control 3.73.

≈ marks a conversion by molar mass, not a printed value.

Turning to `COc1ccc(C(=O)/C=C/c2ccccc2F)c(OC)c1OC` [2-F-2′,3′,4′-OCH3, 2-fluoro-2′,3′,4′-trimethoxychalcone], the melting point (in general, the temperature, or range, at which the solid turns liquid) lay within 75 to 75.8 °C. The IC50 (usually the concentration that gives 50% inhibition) in the data set on human lymphocytes is 11 ± 1 µM. Also, the IC50 in the data set with Leishmania promastigotes was 15 ± 1 µM.

In turn, `COc1cc(/C=C/C(=O)c2ccc(OC)c(OC)c2OC)cc(OC)c1` [2′,3′,4′,3,5-OCH3, 3,5,2′,3′,4′-pentamethoxychalcone] came in with a melting point of 111.6 to 112.5 °C. Moreover, the IC50 in the data set with human lymphocytes is 8.7 ± 0.5 µM. In the data set with Leishmania promastigotes, the IC50 was 8.3 ± 0.9 µM.

Take `COc1cccc(C(=O)/C=C/c2ccc(OC)cc2OC)c1` [3′,2,4-OCH3, 2,4,3′-trimethoxychalcone]: the melting point lay in the range of 75.6 to 78.9 °C. In addition, the IC50 with human lymphocytes was determined as 42 ± 2 µM. The IC50 in the data set on Leishmania promastigotes came out at 18 ± 3 µM.

Turning to `CN(C)c1ccc(/C=C/C(=O)c2ccc([N+](=O)[O-])cc2)cc1` [4′-NO2-4-N(CH3)2, 4-dimethylamino-4′-nitrochalcone], the melting point lay in the range of 214 to 214.7 °C.

As to `COc1cc(/C=C/C(=O)c2ccc(N(C)C)cc2)cc(OC)c1` [PH32, 4′-dimethylamino-3,5-dimethoxychalcone], the MIC (commonly the least concentration at which growth counts as inhibited) in the data set on Helicobacter pylori is above 128 µg/mL. Besides, the “No. strains inhibited/No. strains tested” value in the data set on Helicobacter pylori was 0/20. In addition, the IC50 with Plasmodium falciparum was 17 µM. In addition, in the data set on TNF-α, the “inhibitory effect on TNF-α production” value is given as “no or very little inhibitory effect”. Further, the “TNF-α production (OD values)” value in the data set with TNF-α (setting [1]) came out at 1.23 OD; with TNF-α (setting [2]) it was 1.55 OD; with TNF-α (setting [3]), 1.28 OD; in the data set with TNF-α (setting [4]), 0.94 OD; in the data set with TNF-α (setting [5]) it was 3.90 OD; with TNF-α (setting [6]), 2.26 OD. For the same compound, the entries for the “TNF-α production (OD values)” value in the data set with TNF-α (setting [7]) and with TNF-α (setting [8]) were 1.74 OD and 0.75 OD, respectively.

For `CCCCOc1cccc(C(=O)/C=C/c2ccc(OC)cc2OC)c1` [PH81, 3′-butoxy-2,4-dimethoxychalcone], in the data set with Helicobacter pylori, the MIC was found to be 16 µg/mL (≈ 47 µM). Besides, in the data set on Helicobacter pylori, the “No. strains inhibited/No. strains tested” value is on record as 5/20. For the same compound, the values for the IC50 with Plasmodium falciparum, in the data set on human lymphocytes and in the data set with Leishmania promastigotes were 16 µM, 65 ± 4 µM and 20 ± 3 µM, respectively.

Regarding `CCCCOc1ccccc1C(=O)/C=C/c1ccc(OC)cc1OC` [PH142, 2′-butoxy-2,4-dimethoxychalcone], the MIC with Helicobacter pylori came to 128 µg/mL (≈ 376 µM). Further, the “No. strains inhibited/No. strains tested” value in the data set with Helicobacter pylori is on record as 2/20. The “TNF-α production (OD values)” value with TNF-α (setting [1]) was found to be 0.26 OD; with TNF-α (setting [2]), 0.24 OD; in the data set on TNF-α (setting [3]), 0.18 OD; in the data set with TNF-α (setting [4]), 0.10 OD; with TNF-α (setting [5]), 0.02 OD; with TNF-α (setting [6]), 0.02 OD. The “TNF-α production (OD values)” value with TNF-α (setting [7]) is reported as 0.02 OD; in the data set with TNF-α (setting [8]), 0.02 OD; in the data set on TNF-α (Experiment 2, LPS, 1.562 μg/ml, Control 2.06) it was 1.58 OD; in the data set on TNF-α (Experiment 2, LPS, 3.125 μg/ml, Control 2.06), 1.00 OD; in the data set with TNF-α (Experiment 2, LPS, 6.25 μg/ml, Control 2.06), 0.65 OD; in the data set on TNF-α (Experiment 2, LPS, 12.5 μg/ml, Control 2.06) it was 0.16 OD. Further, the “TNF-α production (OD values)” value is on record as 1.86 OD in the data set on TNF-α (Experiment 2, SPAG, 1.562 μg/ml, Control 2.28); 0.55 OD in the data set on TNF-α (Experiment 2, SPAG, 3.125 μg/ml, Control 2.28); 0.04 OD in the data set with TNF-α (Experiment 2, SPAG, 6.25 μg/ml, Control 2.28); 0.02 OD with TNF-α (Experiment 2, SPAG, 12.5 μg/ml, Control 2.28).
